This passage reports IC50 results from US10723727B2, “Tubulysin analogs and methods for their preparation” (priority 2016, dated 2020).

Like-named read-outs stand apart in the source and are kept apart here. Some results are limits rather than exact numbers.

The test system of assay [1] is N87 (gastric cancer) cells. Briefly: In vitro cell assay (MTS cell viability), N87. The assay is classed as cell-based. The following applies: free compounds, 96 hours after treatment. The protocol: (§1) In Vitro Cell Assay Procedure
(§2) Target expressing (BT474 (breast cancer), N87 (gastric cancer), HCC1954 (breast cancer), MDA-MB-361-DYT2 (breast cancer)) or non-expressing (HT-29) cells were seeded in 96-well cell culture plates for 24 hours before treatment. Cells were treated with 3-fold serially diluted antibody-drug conjugates or free compounds (i. e. no antibody conjugated to the drug) in duplicate at 10 concentrations. Cell viability was determined by CellTiter 96® AQueous One Solution Cell Proliferation MTS Assay (Promega, Madison Wis.) 96 hours after treatment. Relative cell viability was determined as percentage of untreated control. IC50 values were calculated using a four parameter logistic model #203 with XLfit v4. 2 (IDBS, Guildford, Surry, UK).

The subject of assay [2] is MDA-MB-361-DYT2 (breast cancer) cells. Briefly: In vitro cell assay (MTS cell viability), MDA-MB-361-DYT2. The class given is cell-based. The note with it: free compounds, 96 hours after treatment. The method, then: as §1, §2
The next assay relates to HT-29 cells. Description: In vitro cell assay (MTS cell viability), HT-29 (target non-expressing). The following applies: free compounds, 96 hours after treatment, read-out: HT29 IC50. The class given is cell-based. The method, then:
as §1, §2

Assay [3] deals with T1, tubulin/RB3-stathmin-like-domain (RB3-SLD-tdm) complex (Sus scrofa, UniProt P02550+P02554).
T1 construct: purchased Cytoskeleton, Inc. T240; host or cells: RB3-SLD was made in house in E. coli
Description: Tubulin Peptide-Binding Site Competition Assay (fluorescence polarization). More on the design: species or system Porcine. The following applies: FP competition with BODIPY-labeled vinca peptide probe; read after five hours at 22° C.; read-out: Tubulin Peptide-Binding Site Competition Assay IC50. In short, it runs like this:
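The BODIPY vinca-peptide probe was premixed with test compound and then added to porcine tubulin/RB3-SLD, at final concentrations of 3 nM probe, 6 nM tubulin and 100 nM RB3-SLD. The buffer was PIPES pH 7.0 with Tween 20, MgCl2 and EGTA, and 11-point dilutions were run in duplicate. IC50 was fitted from the fluorescence polarization decrease and converted to Ki.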

By IC50 is commonly meant the concentration that gives 50% inhibition. Turning to `CCNC(=O)O[C@H](C[C@H](C(C)C)N(C)C(=O)[C@@H](NC(=O)C1(C)CCCCN1C)[C@@H](C)CC)c1nc(C(=O)N[C@@H](Cc2ccc(N)cc2)C[C@H](C)C(=O)O)cs1` (stereo in doubt) [#B24, (2S,4R)-5-(4-aminophenyl)-4-{[(2-{(1R,3R)-3-[(N-{[(2R)-1,2-dimethylpiperidin-2-yl]carbonyl}-L-isoleucyl)(methyl)amino]-1-[(ethylcarbamoyl)oxy]-4-methylpentyl}-1,3-thiazol-4-yl)carbonyl]amino}-2-methylpentanoic acid], the values for the IC50 (in assay [1]; in assay [2]; in the assay on HT-29 cells) were 1.22 nM, 1.24 nM and 1.14 nM, respectively.
`CC[C@H](C)[C@H](NC(=O)[C@@]1(C)CCCN1C)C(=O)N(C)[C@H](C[C@@H](OC(C)=O)c1nc(C(=O)N[C@@H](Cc2ccccc2)C[C@H](C)C(=O)OC)cs1)C(C)C` [#B5, 1,2-dimethyl-D-prolyl-N-[(1R,3R)-1-(acetyloxy)-1-(4-{[(2R,4S)-5-methoxy-4-methyl-5-oxo-1-phenylpentan-2-yl]carbamoyl}-1,3-thiazol-2-yl)-4-methylpentan-3-yl]-N-methyl-L-isoleucinamide]: the IC50 in assay [3] was determined as 22.4 nM; in assay [1] (96 h), 0.763 nM; in assay [2] (96 h), 0.361 nM; in the assay with HT-29 cells (Homo sapiens, HT-29, 96 h), 1.11 nM.
As for `CC[C@H](C)[C@H](NC(=O)[C@@]1(C)CCCN1C)C(=O)N(C)[C@H](C[C@@H](OC(C)=O)c1nc(C(=O)N[C@@H](Cc2ccc(N)cc2)C[C@H](C)C(=O)O)cs1)C(C)C` [#B9, 1,2-dimethyl-D-prolyl-N-[(1R,3R)-1-(acetyloxy)-1-(4-{[(2R,4S)-1-(4-aminophenyl)-4-carboxypentan-2-yl]carbamoyl}-1,3-thiazol-2-yl)-4-methylpentan-3-yl]-N-methyl-L-isoleucinamide], the concentration for half-maximal inhibition (IC50) amounted to 2.5 nM in assay [3]; 1.07 nM in assay [1] (96 h); 0.765 nM in assay [2] (96 h); 0.642 nM in the assay with HT-29 cells (Homo sapiens, HT-29, 96 h).
For `CCOP(=O)(OCC)[C@@H](C)C[C@H](Cc1ccc(N)cc1)NC(=O)c1csc([C@@H](C[C@H](C(C)C)N(C)C(=O)[C@@H](NC(=O)[C@H]2CCCCN2C)[C@@H](C)CC)OC(C)=O)n1` [#B11, (1R,3R)-1-(4-{[(2S,4S)-1-(4-aminophenyl)-4-(diethoxyphosphoryl)pentan-2-yl]carbamoyl}-1,3-thiazol-2-yl)-4-methyl-3-[methyl(N-{[(2R)-1-methylpiperidin-2-yl]carbonyl}-L-isoleucyl)amino]pentyl Acetate], the IC50 was found to be 0.909 nM in assay [1] (96 h); 0.609 nM in assay [2] (96 h); 0.954 nM in the assay on HT-29 cells (Homo sapiens, HT-29, 96 h).
On to `CCOC(=O)[C@@H](C)C[C@H](Cc1ccccc1)NC(=O)c1csc([C@@H](C[C@H](C(C)C)N(C)C(=O)[C@@H](NC(=O)[C@@]2(C)CCCN2C)[C@@H](C)CC)NC(C)=O)n1` [#B18, 1,2-dimethyl-D-prolyl-N-[(1R,3R)-1-(acetylamino)-1-(4-{[(2R,4S)-5-ethoxy-4-methyl-5-oxo-1-phenylpentan-2-yl]carbamoyl}-1,3-thiazol-2-yl)-4-methylpentan-3-yl]-N-methyl-L-isoleucinamide], for which the IC50 in assay [1] (96 h) was > 100 nM; in assay [2] (96 h), > 100 nM; with HT-29 cells (Homo sapiens, HT-29, 96 h) it was > 100 nM.
`CC[C@H](C)[C@H](NC(=O)[C@@]1(C)CCCN1C)C(=O)N(C)[C@H](C[C@@H](NC(C)=O)c1nc(C(=O)N[C@@H](Cc2ccccc2)C[C@H](C)C(=O)O)cs1)C(C)C` [#B19, 1,2-dimethyl-D-prolyl-N-[(1R,3R)-1-(acetylamino)-1-(4-{[(2R,4S)-4-carboxy-1-phenylpentan-2-yl]carbamoyl}-1,3-thiazol-2-yl)-4-methylpentan-3-yl]-N-methyl-L-isoleucinamide]: the IC50 was found to be 37.7 nM in assay [1] (96 h); 17.4 nM in assay [2] (96 h); 14.6 nM in the assay with HT-29 cells (Homo sapiens, HT-29, 96 h).
Take `CC[C@H](C)[C@H](NC(=O)[C@@]1(C)CCCN1C)C(=O)N(C)[C@H](C[C@@H](NC(C)=O)c1nc(C(=O)N[C@@H](Cc2ccccc2)C[C@H](C)C(=O)OC)cs1)C(C)C` [#B20, 1,2-dimethyl-D-prolyl-N-[(1R,3R)-1-(acetylamino)-1-(4-{[(2R,4S)-5-methoxy-4-methyl-5-oxo-1-phenylpentan-2-yl]carbamoyl}-1,3-thiazol-2-yl)-4-methylpentan-3-yl]-N-methyl-L-isoleucinamide]: the half-inhibitory concentration (IC50) in assay [1] (96 h) worked out at 6.11 nM; in assay [2] (96 h) it was 2.58 nM; in the assay with HT-29 cells (Homo sapiens, HT-29, 96 h), 3.37 nM.
In the case of `CCNC(=O)O[C@H](C[C@H](C(C)C)N(C)C(=O)[C@@H](NC(=O)[C@@]1(C)CCCN1C)[C@@H](C)CC)c1nc(C(=O)N[C@H](C(=O)OC)C(C)O)cs1` (stereo partly drawn) [#B22, 1,2-dimethyl-D-prolyl-N-{(1R,3R)-1-[(ethylcarbamoyl)oxy]-1-(4-{[(2S)-3-hydroxy-1-methoxy-1-oxobutan-2-yl]carbamoyl}-1,3-thiazol-2-yl)-4-methylpentan-3-yl]-N-methyl-L-isoleucinamide], the IC50 in assay [1] (96 h) turned out to be 12.1 nM; in assay [2] (96 h) it was 11.2 nM; in the assay with HT-29 cells (Homo sapiens, HT-29, 96 h) it was 14.4 nM.
Regarding `CC[C@H](C)[C@H](NC(=O)[C@]1(C)CCCCN1C)C(=O)N(C)[C@H](C[C@@H](OC(C)=O)c1nc(C(=O)N[C@@H](Cc2ccc(N)cc2)C[C@H](C)C(=O)O)cs1)C(C)C` [#B23, (2S,4R)-4-{[(2-{(1R,3R)-1-(acetyloxy)-3-[(N-{[(2S)-1,2-dimethylpiperidin-2-yl]carbonyl}-L-isoleucyl)(methyl)amino]-4-methylpentyl}-1,3-thiazol-4-yl)carbonyl]amino}-5-(4-aminophenyl)-2-methylpentanoic acid], the IC50 in assay [1] (96 h) amounted to 2.71 nM; in assay [2] (96 h) it was 2.02 nM; with HT-29 cells (Homo sapiens, HT-29, 96 h), 2.33 nM.
Take `CCNC(=O)O[C@H](C[C@H](C(C)C)N(C)C(=O)[C@@H](NC(=O)[C@]1(C)CCCCN1C)[C@@H](C)CC)c1nc(C(=O)N[C@@H](Cc2ccc(N)cc2)C[C@H](C)C(=O)O)cs1` [#B25, (2S,4R)-5-(4-aminophenyl)-4-{[(2-{(1R,3R)-3-[(N-{[(2S)-1,2-dimethylpiperidin-2-yl]carbonyl}-L-isoleucyl)(methyl)amino]-1-[(ethylcarbamoyl)oxy]-4-methylpentyl}-1,3-thiazol-4-yl)carbonyl]amino}-2-methylpentanoic acid]: the figures for the IC50 (in assay [1]; in assay [2]; with HT-29 cells) were 6.3 nM, 4.62 nM and 5.9 nM, respectively.
For the compound `CC[C@H](C)[C@H](NC(=O)[C@@]1(C)CCCN1C)C(=O)N(C)[C@H](C[C@@H](NC(C)=O)c1nc(C(=O)N[C@@H](Cc2ccc(N)cc2)C[C@H](C)C(=O)O)cs1)C(C)C` [#B28, 1,2-dimethyl-D-prolyl-N-[(1R,3R)-1-(acetylamino)-1-(4-{[(2R,4S)-1-(4-aminophenyl)-4-carboxypentan-2-yl]carbamoyl}-1,3-thiazol-2-yl)-4-methylpentan-3-yl]-N-methyl-L-isoleucinamide], the 50% inhibitory concentration (IC50) in assay [1] (96 h) is > 100 nM; in assay [2] (96 h) it was 81.5 nM; in the assay with HT-29 cells (Homo sapiens, HT-29, 96 h), 74.9 nM.
For `CCNC(=O)N[C@H](C[C@H](C(C)C)N(C)C(=O)[C@@H](NC(=O)[C@@]1(C)CCCN1C)[C@@H](C)CC)c1nc(C(=O)N[C@@H](Cc2ccc(N)cc2)C[C@H](C)C(=O)O)cs1` [#B29, 1,2-dimethyl-D-prolyl-N-{(1R,3R)-1-(4-{[(2R,4S)-1-(4-aminophenyl)-4-carboxypentan-2-yl]carbamoyl}-1,3-thiazol-2-yl)-1-[(ethylcarbamoyl)amino]-4-methylpentan-3-yl}-N-methyl-L-isoleucinamide], the IC50 in assay [1] (96 h) came out at 28.6 nM; in assay [2] (96 h), 24.9 nM; with HT-29 cells (Homo sapiens, HT-29, 96 h), 24.5 nM.
Turning to `CC[C@H](C)[C@H](NC(=O)[C@@]1(C)CCCN1C)C(=O)N(C)[C@H](C[C@H](O)c1nc(C(=O)N[C@@H](Cc2ccc(N)cc2)C[C@H](C)C(=O)O)cs1)C(C)C` [#B33, 1,2-dimethyl-D-prolyl-N-{(1S,3R)-1-(4-{[(2R,4S)-1-(4-aminophenyl)-4-carboxypentan-2-yl]carbamoyl}-1,3-thiazol-2-yl)-1-hydroxy-4-methylpentan-3-yl]-N-methyl-L-isoleucinamide], the IC50 in assay [1] (96 h) was > 1000 nM; in assay [2] (96 h) it was > 1000 nM; in the assay on HT-29 cells (Homo sapiens, HT-29, 96 h) it was > 1000 nM.
`CC[C@H](C)[C@H](NC(=O)[C@H]1CCCCN1C)C(=O)N(C)[C@H](C[C@@H](OC(C)=O)c1nc(C(=O)NCCn2ccccc2=O)cs1)C(C)C` [#B41, (1R,3R)-4-methyl-3-[methyl(N-{[(2R)-1-methylpiperidin-2-yl]carbonyl}-L-isoleucyl)amino]-1-[4-{[2-(2-oxopyridin-1(2H)-yl)ethyl]carbamoyl}-1,3-thiazol-2-yl)pentyl acetate]: the IC50 stood at 4.41 nM in assay [3], 2 nM in assay [1] (96 h) and 1.44 nM in assay [2] (96 h).
